For test [1], the target named is human CB1 receptor (hCB1) (Homo sapiens, UniProt P21554). Briefly: cell-based. It counts as cell-based. In outline: (§1)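 First, cells in IBMX-containing HEPES-buffered HBSS are raised to elevated cAMP with 2-8 μM NKH-477 for 30 min. Data are normalised to the forskolin and forskolin + 1 μM CP55,940 controls.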
The next test addresses T1, rat CB2 receptor (rCB2) (Rattus norvegicus, UniProt Q9QZN9).
T1 sequence (Q9QZN9 1-360): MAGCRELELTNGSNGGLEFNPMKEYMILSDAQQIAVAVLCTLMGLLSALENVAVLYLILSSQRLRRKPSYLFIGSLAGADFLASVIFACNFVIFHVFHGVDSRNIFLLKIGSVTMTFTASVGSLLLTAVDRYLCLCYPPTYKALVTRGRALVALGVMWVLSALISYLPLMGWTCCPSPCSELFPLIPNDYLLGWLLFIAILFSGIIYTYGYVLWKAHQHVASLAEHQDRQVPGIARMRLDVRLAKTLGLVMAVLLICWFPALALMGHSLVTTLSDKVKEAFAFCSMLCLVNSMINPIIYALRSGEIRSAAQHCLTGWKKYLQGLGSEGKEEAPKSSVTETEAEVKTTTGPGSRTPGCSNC
Briefly: cell-based. In kind it is cell-based. The conditions noted are these: for +/− RCB2: agonist or inverse agonist at rCB2. The procedure, abridged: as §1

In general, EC50 refers to the concentration needed to bring the measured effect to its halfway point.

Structures are written as SMILES. Like-named read-outs stand apart in the source and are kept apart here. A value given as a limit tells only on which side of the number the result lay.

Chain of human CB1 receptor (hCB1) (P21554 whole entry): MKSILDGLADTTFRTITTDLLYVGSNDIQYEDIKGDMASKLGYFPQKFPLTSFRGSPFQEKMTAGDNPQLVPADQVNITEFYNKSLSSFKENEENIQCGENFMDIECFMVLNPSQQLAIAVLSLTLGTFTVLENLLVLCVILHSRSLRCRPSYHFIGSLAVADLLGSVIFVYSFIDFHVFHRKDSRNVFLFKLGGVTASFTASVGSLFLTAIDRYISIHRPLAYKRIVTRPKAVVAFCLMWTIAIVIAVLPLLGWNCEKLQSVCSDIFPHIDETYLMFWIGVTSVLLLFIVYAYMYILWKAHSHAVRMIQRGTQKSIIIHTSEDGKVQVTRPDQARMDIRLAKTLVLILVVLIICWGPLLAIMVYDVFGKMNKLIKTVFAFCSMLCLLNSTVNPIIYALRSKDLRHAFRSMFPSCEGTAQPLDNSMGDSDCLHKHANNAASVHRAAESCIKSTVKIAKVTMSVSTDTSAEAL

With `CNC(=O)[C@@H](NC(=O)c1nc(-c2ccccc2)n2c1CN(C(C)=O)CC2)C(C)(C)C` [Compound 174, (S)-7-acetyl-N-(3,3-dimethyl-1-(methylamino)-1-oxobutan-2-yl)-3-phenyl-5,6,7,8-tetrahydroimidazo[1,5-a]pyrazine-1-carboxamide], the EC50 in test [1] is more than 10000 nM. The “+/− RCB2” value at rat CB2 receptor (rCB2) is given as “+”.
The corresponding values for `COCCNC(=O)[C@@H](NC(=O)c1nc(-c2ccccc2)n2c1CN(C)CCC2)C(C)(C)C` [Compound 475, (S)-N-(1-(2-methoxyethylamino)-3,3-dimethyl-1-oxobutan-2-yl)-8-methyl-3-phenyl-6,7,8,9-tetrahydro-5H-imidazo[1,5-a][1,4]diazepine-1-carboxamide] are more than 10000 nM and “+”.
In test [1], `CC(C)(C)[C@H](CO)NC(=O)c1nc(-c2ccccc2)n2c1CNCC2` [Compound 23, (R)-N-(1-hydroxy-3,3-dimethylbutan-2-yl)-3-phenyl-5,6,7,8-tetrahydroimidazo[1,5-a]pyrazine-1-carboxamide] came in with an EC50 of more than 10000 nM. Also, the “+/− RCB2” value on rat CB2 receptor (rCB2) is reported as “+”.
On to `CNC(=O)[C@@H](NC(=O)c1nc(-c2ccc(C)cc2)n2c1CN(C)CCC2)C(C)(C)C` [Compound 332, (S)-N-(3,3-dimethyl-1-(methylamino)-1-oxobutan-2-yl)-8-methyl-3-p-tolyl-6,7,8,9-tetrahydro-5H-imidazo[1,5-a][1,4]diazepine-1-carboxamide], for which the results for the EC50 (in test [1]; at rat CB2 receptor (rCB2)) were more than 10000 nM and more than 10 µM, respectively.
Regarding `CNC(=O)[C@@H](NC(=O)c1nc(-c2ccccc2)n2c1CN(C)CC2)C(C)C` [Compound 206, (S)-7-methyl-N-(3-methyl-1-(methylamino)-1-oxobutan-2-yl)-3-phenyl-5,6,7,8-tetrahydroimidazo[1,5-a]pyrazine-1-carboxamide], in test [1], the EC50 was more than 10000 nM. In addition, the “+/− RCB2” value at rat CB2 receptor (rCB2) is on record as “+”.
Turning to `CN1CCn2c(-c3ccc(Cl)cc3F)nc(C(=O)N3CCC(n4c(=O)[nH]c5ccccc54)CC3)c2C1` [Compound 215, 1-(1-(3-(4-chloro-2-fluorophenyl)-7-methyl-5,6,7,8-tetrahydroimidazo[1,5-a]pyrazine-1-carbonyl)piperidin-4-yl)-1H-benzo[d]imidazol-2(3H)-one], the EC50 in test [1] (groups >100 nM-10 μM and >10 μM, cAMP, CHO-K1 hCB1, read-out: EC50 HCB1) was more than 10000 nM. For the same compound, the “+/− RCB2” value on rat CB2 receptor (rCB2) is on record as “−”.
Take `CNC(=O)[C@@H](NC(=O)c1nc(-c2ccc(F)cc2)n2c1CNCC2)C(C)(C)C` [Compound 6, (S)-N-(3,3-dimethyl-1-(methylamino)-1-oxobutan-2-yl)-3-(4-fluorophenyl)-5,6,7,8-tetrahydroimidazo[1,5-a]pyrazine-1-carboxamide]: the EC50 in test [1] is more than 10000 nM; on rat CB2 receptor (rCB2) it was more than 10 µM.
The compound `CC(C)(C)OC(=O)N1CCn2c(-c3ccc(Cl)cc3)nc(C(=O)N[C@H](CO)C(C)(C)C)c2C1` [Compound 34, (S)-tert-butyl 3-(4-chlorophenyl)-1-(1-hydroxy-3,3-dimethylbutan-2-ylcarbamoyl)-5,6-dihydroimidazo[1,5-a]pyrazine-7(8H)-carboxylate] displayed an EC50 in test [1] of more than 10000 nM. Also, the “+/− RCB2” value at rat CB2 receptor (rCB2) is listed as “−”.
The corresponding values for `CNC(=O)[C@@H](NC(=O)c1nc(-c2ccccc2)n2c1CN(S(=O)(=O)c1ccc(F)cc1)CC2)C(C)(C)C` [Compound 93, (S)-N-(3,3-dimethyl-1-(methylamino)-1-oxobutan-2-yl)-7-(4-fluorophenylsulfonyl)-3-phenyl-5,6,7,8-tetrahydroimidazo[1,5-a]pyrazine-1-carboxamide] are more than 10000 nM and “−”.
In turn, `CNC(=O)[C@@H](NC(=O)c1nc(-c2ccccc2)n2c1CN(S(=O)(=O)C(C)C)CC2)C(C)(C)C` [Compound 94, (S)-N-(3,3-dimethyl-1-(methylamino)-1-oxobutan-2-yl)-7-(isopropylsulfonyl)-3-phenyl-5,6,7,8-tetrahydroimidazo[1,5-a]pyrazine-1-carboxamide] registered a half-maximal effective concentration (EC50) in test [1] of more than 10000 nM. Besides, at rat CB2 receptor (rCB2), the “+/− RCB2” value is recorded as “−”.
